Row | SMILES | melting point
1 | Cc1nc(-n2cc(-c3ccccc3)nn2)sc1C(=O)NCc1ccccc1 [Example 10, N-benzyl-4-methyl-2-(4-phenyl-1H-1,2,3-triazol-1-yl)thiazole-5-carboxamide] | 175 to 178 °C
2 | Cc1cc(-n2nnc(-c3ccccc3)n2)sc1C(=O)NCc1ccccc1 [Example 21, N-benzyl-3-methyl-5-(5-phenyl-2H-tetrazol-2-yl)thiophene-2-carboxamide] | 155 to 158 °C
3 | Cc1nc(-c2cn(Cc3ccc(C(F)(F)F)cc3)nn2)sc1C(=O)NCc1ccccc1 [Example 1.3, N-benzyl-4-methyl-2-(1-(4-(trifluoromethyl)benzyl)-1H-1,2,3-triazol-4-yl)thiazole-5-carboxamide] | 131 to 132 °C
4 | Cc1nc(-c2cnc(Cc3ccccc3)o2)sc1C(=O)NCc1ccccc1 [Example 36, N-benzyl-2-(2-benzyloxazol-5-yl)-4-methylthiazole-5-carboxamide] | 141 to 142 °C
5 | Cc1nc(-c2cn(Cc3ccc(F)cc3)nn2)sc1C(=O)NCc1ccccc1 [Example 1.2, N-benzyl-2-(1-(4-fluorobenzyl)-1H-1,2,3-triazol-4-yl)-4-methylthiazole-5-carboxamide] | 114 to 115 °C
6 | Cc1nc(-n2cc(C(=O)NCc3ccccc3)nn2)sc1C(=O)NCc1ccccc1 [Example 18, N-benzyl-2-(4-(benzylcarbamoyl)-1H-1,2,3-triazol-1-yl)-4-methylthiazole-5-carboxamide] | 178 to 180 °C
7 | Cc1nc(-c2n[nH]c(Cc3ccccc3)n2)sc1C(=O)NCc1ccccc1 [Example 8, N-benzyl-2-(5-benzyl-1H-1,2,4-triazol-3-yl)-4-methylthiazole-5-carboxamide] | 235 to 237 °C
8 | Cc1nc(-n2cc(C(=O)c3ccccc3)nn2)sc1C(=O)NCc1ccccc1 [Example 11, 2-(4-benzoyl-1H-1,2,3-triazol-1-yl)-N-benzyl-4-methylthiazole-5-carboxamide] | 176 to 178 °C
9 | Cc1nc(-c2cn(CC(F)(F)c3ccccc3)nn2)sc1C(=O)NCc1cccnc1 [Example 30, 2-(1-(2,2-difluoro-2-phenylethyl)-1H-1,2,3-triazol-4-yl)-4-methyl-N-(pyridin-3-ylmethyl)thiazole-5-carboxamide] | 150 to 151 °C
10 | Cc1cc(-c2n[nH]c(Cc3ccccc3)n2)sc1C(=O)NCc1ccccc1 [Example 9, N-benzyl-5-(5-benzyl-1H-1,2,4-triazol-3-yl)-3-methylthiophene-2-carboxamide] | 168 to 171 °C
11 | Cc1nc(-c2cn(Cc3ccccc3)nn2)sc1C(=O)NCc1cccnc1 [Example 4, 2-(1-benzyl-1H-1,2,3-triazol-4-yl)-4-methyl-N-(pyridin-3-ylmethyl)thiazole-5-carboxamide] | 212 to 213 °C

Other lines, results leading:

Row | melting point | SMILES
12 | 159 to 162 °C | Cc1nc(-n2cc(CNc3ccccc3)nn2)sc1C(=O)NCc1ccccc1 [Example 10.10, N-benzyl-4-methyl-2-(4-((phenylamino)methyl)-1H-1,2,3-triazol-1-yl)thiazole-5-carboxamide]
13 | 140 to 143 °C | Cc1nc(-n2cc(COc3ccccc3)nn2)sc1C(=O)NCc1ccccc1 [Example 10.4, N-benzyl-4-methyl-2-(4-(phenoxymethyl)-1H-1,2,3-triazol-1-yl)thiazole-5-carboxamide]
14 | 114 to 115 °C | Cc1nc(-c2cc(CCc3ccccc3)no2)sc1C(=O)NCc1ccccc1 [Example 27.1, N-benzyl-4-methyl-2-(3-phenethylisoxazol-5-yl)thiazole-5-carboxamide]
15 | 204 to 205 °C | Cc1nc(-c2cn(Cc3ccc(C(F)(F)F)cc3)nn2)sc1C(=O)NCc1cccnc1 [Example 4.2, 4-methyl-N-(pyridin-3-ylmethyl)-2-(1-(4-(trifluoromethyl)benzyl)-1H-1,2,3-triazol-4-yl)thiazole-5-carboxamide]
16 | 184 to 187 °C | Cc1nc(-n2cc(-c3ccccn3)nn2)sc1C(=O)NCc1ccccc1 [Example 10.6, N-benzyl-4-methyl-2-(4-(pyridin-2-yl)-1H-1,2,3-triazol-1-yl)thiazole-5-carboxamide]
17 | 183 to 186 °C | Cc1nc(-n2nnc(C(=O)NCc3ccccc3)c2C)sc1C(=O)NCc1ccccc1 [Example 18.2, N-benzyl-2-(4-(benzylcarbamoyl)-5-methyl-1H-1,2,3-triazol-1-yl)-4-methylthiazole-5-carboxamide]
18 | 167 to 170 °C | Cc1nc(-n2cc(CCc3ccccc3)nn2)sc1C(=O)NCc1ccccc1 [Example 10.2, N-benzyl-4-methyl-2-(4-phenethyl-1H-1,2,3-triazol-1-yl)thiazole-5-carboxamide]
19 | 123 to 126 °C | Cc1nc(-n2cc(-c3ccsc3)nn2)sc1C(=O)NCc1ccccc1 [Example 10.11, N-benzyl-4-methyl-2-(4-(thiophen-3-yl)-1H-1,2,3-triazol-1-yl)thiazole-5-carboxamide]
20 | 124 to 125 °C | Cc1nc(-c2cn(CCC3CC3)nn2)sc1C(=O)NCc1cccnc1 [Example 4.4, 2-(1-(2-cyclopropylethyl)-1H-1,2,3-triazol-4-yl)-4-methyl-N-(pyridin-3-ylmethyl)thiazole-5-carboxamide]
21 | 237 to 240 °C | Cc1nc(-n2cc(-c3ccc(OCc4ccccc4)cc3)nn2)sc1C(=O)NCc1ccccc1 [Example 10.8, N-benzyl-2-(4-(4-(benzyloxy)phenyl)-1H-1,2,3-triazol-1-yl)-4-methylthiazole-5-carboxamide]
22 | 146 to 149 °C | Cc1nc(-n2cc([C@H](O)c3ccccc3)nn2)sc1C(=O)NCc1ccccc1 [Example 10.12, (R)—N-benzyl-2-(4-(hydroxy(phenyl)methyl)-1H-1,2,3-triazol-1-yl)-4-methylthiazole-5-carboxamide]

From patent publication US8258160B2, “SCD1 inhibitors triazole and tetrazole compounds” (Novartis AG, priority 2006, dated 2012)
